Results reported in ChEMBL document CHEMBL4428056 (J Med Chem, 2016).
Calls of active or inactive are those of the source. The calls are words filed in the database; no cut-off is given here.

Columns and labels:
Galectin-9 [1] = target: T1, Galectin-9 (Homo sapiens, UniProt O00182); experiment: Competitive binding affinity to recombinant human galectin-9 N-terminal after 5 mins in presence of fluorescent probe 2-(fluorescein-5-yl-carbonylamino)ethyl-beta-D-galactopyranosyl(1-4)-2-acetamido-2-deoxy-beta-D-glucopyranosyl(1-3)-beta-D-galactopyranosyl(1-4)-beta-D-glucopyranoside by fluorescence polarization assay
T1 sequence (O00182 whole entry): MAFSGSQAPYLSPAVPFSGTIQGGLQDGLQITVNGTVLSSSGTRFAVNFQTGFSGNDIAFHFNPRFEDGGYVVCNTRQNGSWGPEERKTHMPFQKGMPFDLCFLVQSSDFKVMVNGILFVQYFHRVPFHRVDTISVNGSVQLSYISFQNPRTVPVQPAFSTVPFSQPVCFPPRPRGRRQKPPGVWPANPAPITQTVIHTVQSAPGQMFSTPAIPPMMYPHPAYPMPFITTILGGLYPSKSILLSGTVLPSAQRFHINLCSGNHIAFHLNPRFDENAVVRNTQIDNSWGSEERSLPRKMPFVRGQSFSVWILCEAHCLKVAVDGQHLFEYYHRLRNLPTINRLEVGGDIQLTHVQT

Galectin-3 [2] = target: Galectin-3 (Homo sapiens, UniProt P17931, K176L); experiment: (§1) Competitive binding affinity to recombinant human galectin-3 K176L mutant after 5 mins in presence of fluorescent probe beta-D-galactopyranosyl(1-4)-2-acetamido-2-deoxy-beta-D-glucopyranosyl(1-3)-beta-D-galactopyranosyl(1-4)-(N1-fluorescein-5-yl-carbonylaminomethylcarbonyl)-beta-D-glucopyranosylamine by fluorescence polarization assay
Sequence of Galectin-3 (Homo sapiens, UniProt P17931, K176L) (P17931 2-250 K176L limits assumed): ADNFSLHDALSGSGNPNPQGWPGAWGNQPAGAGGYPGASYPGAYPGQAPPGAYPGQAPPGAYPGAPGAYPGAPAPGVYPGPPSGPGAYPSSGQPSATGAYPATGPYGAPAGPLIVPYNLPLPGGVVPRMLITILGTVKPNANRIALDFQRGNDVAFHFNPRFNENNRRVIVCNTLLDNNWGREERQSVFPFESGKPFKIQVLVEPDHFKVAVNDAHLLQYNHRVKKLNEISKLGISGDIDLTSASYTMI

Galectin-3 [3] = target: Galectin-3 (Homo sapiens, UniProt P17931, R186S); experiment: (§2) Competitive binding affinity to recombinant human galectin-3 R186S mutant after 5 mins in presence of fluorescent probe 2-(fluorescein-5/6-yl-carbonyl)-aminoethyl 2-acetamido-2-deoxy-alpha-D-galactopyranosyl-(1-3)-[alpha-L-fucopyranosyl-(1-2)]-beta-D-galactopyranosyl-(1-4)-beta-D-glucopyranoside by fluorescence polarization assay
Sequence of Galectin-3 (Homo sapiens, UniProt P17931, R186S) (P17931 2-250 R186S limits assumed): as the sequence (P17931 2-250 K176L limits assumed) above, with L175K, R185S counted along it

Mus musculus [4] = experiment: Effect on inflammatory response in C57/Bl6 mouse assessed as change in bleomycin-induced total cell counts in bronchoalveolar lavage fluid at 0.35 to 3.5 mg/kg administered intratracheally as 4 doses every 48 hrs commencing on day 18 of bleomycin induction measured on day 26 post last dose; type: functional, organism-based
Mus musculus [5] = experiment: Anti-fibrotic activity in C57/Bl6 mouse bleomycin-induced lung fibrosis model assessed as reduction in total lung collagen levels at 3.5 mg/kg administered intratracheally as 4 doses every 48 hrs commencing on day 18 of bleomycin induction measured on day 26 post last dose relative to control; type: functional; parameters: scale not given: the % may be the effect or the level left
Galectin-7 = target: T2, Galectin-7 (Mus musculus, UniProt O54974); experiment: Competitive binding affinity to recombinant mouse galectin-7 after 5 mins in presence of fluorescent probe beta-D-galactopyranosyl(1-4)-2- acetamido-2-deoxy-beta-D-glucopyranosyl(1-3)-beta-D-galactopyranosyl(1-4)-(N1-fluorescein-5-yl-carbonylaminomethylcarbonyl)-beta-D-glucopyranosylamine by fluorescence polarization assay
T2 sequence (O54974 whole entry): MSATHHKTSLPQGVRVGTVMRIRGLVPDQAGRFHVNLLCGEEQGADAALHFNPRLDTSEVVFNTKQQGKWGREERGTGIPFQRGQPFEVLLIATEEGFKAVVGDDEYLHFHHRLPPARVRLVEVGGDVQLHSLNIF

Mus musculus [6] = experiment: (§3) Anti-fibrotic activity in C57/Bl6 mouse bleomycin-induced lung fibrosis model assessed as reduction in fibrosis score at 3.5 mg/kg administered intratracheally as 4 doses every 48 hrs commencing on day 18 of bleomycin induction measured on day 26 post last dose by Masson's trichrome staining based assay relative to control; type: functional, organism-based
Mus musculus [7] = experiment: Effect on inflammatory score in bleomycin-induced C57/Bl6 mouse at 1 to 3.5 mg/kg administered intratracheally as 4 doses every 48 hrs commencing on day 18 of bleomycin induction measured on day 26 post last dose by Masson's trichrome staining based assay; type: functional, organism-based
Galectin-2 = target: T3, Galectin-2 (Homo sapiens, UniProt P05162); experiment: Competitive binding affinity to recombinant human galectin-2 after 5 mins in presence of fluorescent probe ,[…]-3-[4-(fluorescein-5-yl-carbonylaminomethyl)-1H-1,2,3-triazol-1-yl]-3'-(3,5-dimethoxy-benzamido)-1,1'-sulfanediyl-di-beta-D-galactopyranoside by fluorescence polarization assay
T3 sequence (P05162 whole entry): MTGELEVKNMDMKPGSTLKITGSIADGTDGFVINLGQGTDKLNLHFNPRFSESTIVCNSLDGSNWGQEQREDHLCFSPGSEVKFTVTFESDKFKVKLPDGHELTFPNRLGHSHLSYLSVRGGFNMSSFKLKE

Mus musculus [8] = experiment: Effect on inflammatory response in C57/Bl6 mouse assessed as change in bleomycin-induced total protein levels in bronchoalveolar lavage fluid at 0.35 to 3.5 mg/kg administered intratracheally as 4 doses every 48 hrs commencing on day 18 of bleomycin induction measured on day 26 post last dose; type: functional, organism-based
Galectin-3 [9] = target: Galectin-3 (Homo sapiens, UniProt P17931, R144K); experiment: as §2, with “R144K” for “R186S”
Sequence of Galectin-3 (Homo sapiens, UniProt P17931, R144K) (P17931 2-250 R144K limits assumed): as the sequence (P17931 2-250 K176L limits assumed) above, with R143K, L175K counted along it

Mus musculus [10] = experiment: Anti-fibrotic activity in C57/Bl6 mouse assessed as reduction in bleomycin-induced galectin-3 levels in bronchoalveolar lavage fluid at 0.35 mg/kg administered intratracheally as 4 doses every 48 hrs commencing on day 18 of bleomycin induction measured on day 26 post last dose by ELISA; type: functional; parameters: scale not given: the % may be the effect or the level left
Galectin-4 [11] = target: T4, Galectin-4 (Homo sapiens, UniProt P56470); experiment: Competitive binding affinity to recombinant human galectin-4 N-terminal after 5 mins in presence of fluorescent probe 3,3'-dideoxy-3-[4-(fluorescein-5-yl-carbonylaminomethyl)-1H-1,2,3-triazol-1-yl]-3'-(3,5-dimethoxy-benzamido)-1,1'-sulfanediyl-di-beta-D-galactopyranoside by fluorescence polarization assay
T4 sequence (P56470 whole entry): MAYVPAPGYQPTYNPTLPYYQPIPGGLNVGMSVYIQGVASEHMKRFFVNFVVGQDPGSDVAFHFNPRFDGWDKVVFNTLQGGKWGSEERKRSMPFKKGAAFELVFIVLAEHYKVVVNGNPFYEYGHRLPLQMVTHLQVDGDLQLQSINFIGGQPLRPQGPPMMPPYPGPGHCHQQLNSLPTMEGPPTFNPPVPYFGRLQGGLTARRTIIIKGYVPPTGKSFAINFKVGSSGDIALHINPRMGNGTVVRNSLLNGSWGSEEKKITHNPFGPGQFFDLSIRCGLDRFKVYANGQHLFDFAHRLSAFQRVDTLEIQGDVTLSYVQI

Mus musculus [12] = experiment: Anti-fibrotic activity in C57/Bl6 mouse assessed as reduction in bleomycin-induced galectin-3 levels in bronchoalveolar lavage fluid at 3.5 mg/kg administered intratracheally as 4 doses every 48 hrs commencing on day 18 of bleomycin induction measured on day 26 post last dose by ELISA; type: functional; parameters: scale not given: the % may be the effect or the level left
Galectin-4 [13] = target: T4, Galectin-4; experiment: as §2, with “galectin-4 C-terminal” for “galectin-3 R186S mutant”
Galectin-1 = Galectin-1 (Homo sapiens, UniProt P09382); experiment: (§4) Competitive binding affinity to recombinant human galectin-1 after 5 mins in presence of fluorescent probe 3,3'-dideoxy-3-[4-(fluorescein-5-yl-carbonylaminomethyl)-1H-1,2,3-triazol-1-yl]-3'-(3,5-dimethoxy-benzamido)-1,1'-sulfanediyl-di-beta-D-galactopyranoside by fluorescence polarization assay
Sequence of Galectin-1 (P09382 whole entry): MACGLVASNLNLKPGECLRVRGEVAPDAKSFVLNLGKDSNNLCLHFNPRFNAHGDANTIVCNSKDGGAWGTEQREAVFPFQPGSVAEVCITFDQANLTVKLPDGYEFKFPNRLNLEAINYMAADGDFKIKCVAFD

Mus musculus [14] = experiment: Anti-fibrotic activity in C57/Bl6 mouse assessed as reduction in bleomycin-induced galectin-3 levels in serum at 0.35 to 3.5 mg/kg administered intratracheally as 4 doses every 48 hrs commencing on day 18 of bleomycin induction measured on day 26 post last dose by ELISA; type: functional, organism-based
Galectin-3 [15] = target: Galectin-3 (Homo sapiens, UniProt P17931, R186K); experiment: as §1, with “R186K” for “K176L”
Sequence of Galectin-3 (Homo sapiens, UniProt P17931, R186K) (P17931 2-250 R186K limits assumed): as the sequence (P17931 2-250 K176L limits assumed) above, with L175K, R185K counted along it

Mus musculus [16] = experiment: as §3, with “0.35 to 1” for “3.5”; type: functional, organism-based
Galectin-3 [17] = target: Galectin-3 (Homo sapiens, UniProt P17931); experiment: Competitive binding affinity to recombinant human galectin-3 after 5 mins in presence of fluorescent probe by fluorescence polarization assay
Sequence of Galectin-3 (Homo sapiens, UniProt P17931) (P17931 whole entry): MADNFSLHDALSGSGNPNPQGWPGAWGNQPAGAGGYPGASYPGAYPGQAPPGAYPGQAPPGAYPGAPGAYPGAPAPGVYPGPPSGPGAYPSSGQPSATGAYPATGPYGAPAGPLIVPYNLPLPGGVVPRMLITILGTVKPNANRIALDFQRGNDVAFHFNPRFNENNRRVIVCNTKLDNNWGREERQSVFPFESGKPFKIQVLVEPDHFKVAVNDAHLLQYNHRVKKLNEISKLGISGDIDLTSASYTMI

[18] = Solubility of the compound in DMSO at 100 mM; type: physicochemical; conditions: 100000 µM
Galectin-3 [19] = target: Galectin-3 (Homo sapiens, UniProt P17931, R144S); experiment: as §2, with “R144S” for “R186S”
Sequence of Galectin-3 (Homo sapiens, UniProt P17931, R144S) (P17931 2-250 R144S limits assumed): as the sequence (P17931 2-250 K176L limits assumed) above, with R143S, L175K counted along it

Mus musculus [20] = experiment: Anti-fibrotic activity in C57/Bl6 mouse bleomycin-induced lung fibrosis model assessed as reduction in total lung collagen levels at 0.35 to 1 mg/kg administered intratracheally as 4 doses every 48 hrs commencing on day 18 of bleomycin induction measured on day 26 post last dose; type: functional, organism-based
Galectin-8 = target: T5, Galectin-8 (Homo sapiens, UniProt O00214); experiment: Competitive binding affinity to recombinant human galectin-8 N-terminal after 5 mins in presence of fluorescent probe 2-(fluorescein-5-yl-carbonylamino)ethyl beta-D-galactopyranosyl(1-4)-2-acetamido-2-deoxy-beta-D-glucopyranosyl(1-3)-beta-D-galactopyranosyl(1-4)-beta-D-glucopyranoside by fluorescence polarization assay
T5 sequence (O00214 whole entry): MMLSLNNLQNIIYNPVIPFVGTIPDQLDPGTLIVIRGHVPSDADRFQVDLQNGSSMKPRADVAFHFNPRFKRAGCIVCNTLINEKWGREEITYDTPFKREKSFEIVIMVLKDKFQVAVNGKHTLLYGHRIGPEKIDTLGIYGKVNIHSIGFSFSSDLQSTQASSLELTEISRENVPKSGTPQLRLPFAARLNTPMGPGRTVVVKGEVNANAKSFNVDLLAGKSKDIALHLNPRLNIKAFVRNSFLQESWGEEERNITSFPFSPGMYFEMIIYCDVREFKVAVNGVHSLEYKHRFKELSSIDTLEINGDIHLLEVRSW

Galectin-9 [21] = target: T1, Galectin-9; experiment: as §4, with “galectin-9 C-terminal” for “galectin-1”

Kd (Galectin-9 [1])	Kd (Galectin-7)	Kd (Galectin-4 [11])	Kd (Galectin-4 [13])	Kd (Galectin-1)	Kd (Galectin-3 [17])	solubility [18]	Kd (Galectin-8)	Structure (SMILES)	further results
1.6 µM	5 µM	41 µM	210 µM	16 µM	0.091 µM	Soluble		O=c1oc2ccccc2cc1CO[C@H]1[C@@H](O)[C@@H](CO)O[C@@H](S[C@@H]2O[C@H](CO)[C@H](O)[C@H](OCc3cc4ccccc4oc3=O)[C@H]2O)[C@@H]1O	Kd (Galectin-3 [2]): 0.27 µM; Kd (Galectin-3 [3]): 50 µM; Activity (Mus musculus [4]): inactive; Activity (Mus musculus [5]): 58%; Activity (Mus musculus [6]): Active; Activity (Mus musculus [7]): inactive; Kd (Galectin-2): 6.9 µM; Activity (Mus musculus [8]): inactive; Kd (Galectin-3 [9]): 3 µM; Activity (Mus musculus [10]): 49%; Activity (Mus musculus [12]): 66%; Activity (Mus musculus [14]): Active; Kd (Galectin-3 [15]): 110 µM; Activity (Mus musculus [16]): inactive; Kd (Galectin-3 [19]): 6.1 µM; Activity (Mus musculus [20]): inactive
8.3 µM	34 µM	140 µM	> 500 µM		0.19 µM	Soluble	84 µM	COc1ccc2cc(CO[C@H]3[C@@H](O)[C@@H](CO)O[C@@H](S[C@@H]4O[C@H](CO)[C@H](O)[C@H](OCc5cc6ccc(OC)cc6oc5=O)[C@H]4O)[C@@H]3O)c(=O)oc2c1	Kd (Galectin-9 [21]): 45 µM
	1.7 µM				0.16 µM			O=C(N[C@H]1[C@@H](O)[C@@H](CO)O[C@@H](S[C@@H]2O[C@H](CO)[C@H](O)[C@H](NC(=O)c3ccc4ccccc4c3)[C@H]2O)[C@@H]1O)c1ccc2ccccc2c1	
140 µM	60 µM			21 µM	1.4 µM	Soluble	71 µM	O=c1oc2ccc(Cl)cc2cc1CO[C@H]1[C@@H](O)[C@@H](CO)O[C@@H](S[C@@H]2O[C@H](CO)[C@H](O)[C@H](OCc3cc4cc(Cl)ccc4oc3=O)[C@H]2O)[C@@H]1O	
